Results reported in PubChem BioAssay AID1745844 (Carcinogenic Potency Database (CPDB), 2022).
Calls of active or inactive are those of the source. The rule behind the calls is not given here.

System: rodent lifetime carcinogenesis bioassay, tumor incidence TD50
Assay: chronic cancer bioassays in animals – CPDB, compiled studies (AID 1745844)

O=CCC=O
TD50 (mouse, strain B6C3F1, females, by gavage, site: any site (literature study), lesion: several types, types named in the paper, dosed 103 weeks, study length 104 weeks): 274 mg/kg/day (inactive)
TD50 (mouse, strain B6C3F1, females, by gavage, site: liver, lesion: hepatocellular adenoma + hepatocellular carcinoma + neoplastic nodule, dosed 103 weeks, study length 104 weeks): 568 mg/kg/day
TD50 (mouse, strain B6C3F1, females, by gavage, site: lung, lesion: alveolar/bronchiolar adenoma + alveolar/bronchiolar carcinoma, dosed 103 weeks, study length 104 weeks): 4410 mg/kg/day
TD50 (mouse, strain B6C3F1, males, by gavage, site: any site (literature study), lesion: several types, types named in the paper, dosed 103 weeks, study length 104 weeks): 217 mg/kg/day (inactive)
TD50 (mouse, strain B6C3F1, males, by gavage, site: liver, lesion: hepatocellular adenoma + hepatocellular carcinoma + neoplastic nodule, dosed 103 weeks, study length 104 weeks): 230 mg/kg/day
TD50 (mouse, strain B6C3F1, males, by gavage, site: lung, lesion: alveolar/bronchiolar adenoma + alveolar/bronchiolar carcinoma, dosed 103 weeks, study length 104 weeks): 1130 mg/kg/day
TD50 (mouse, strain Swiss, females, in drinking water, site: liver, lesion: hemangioma, dosed 52 weeks, study length 52 weeks): 24.8 mg/kg/day
TD50 (mouse, strain Swiss, females, in drinking water, site: liver, lesion: hepatoma, dosed 52 weeks, study length 52 weeks): 4.62 mg/kg/day
TD50 (mouse, strain Swiss, females, in drinking water, site: liver, lesion: hyperplastic nodule, dosed 52 weeks, study length 52 weeks): 44.3 mg/kg/day
TD50 (mouse, strain Swiss, females, in drinking water, site: liver, lesion: several types, types named in the paper, dosed 52 weeks, study length 52 weeks): 14.1 mg/kg/day
carcinogen call (mouse, strain Swiss, females, in drinking water, site: lung, lesion: adenoma, dosed 52 weeks, study length 52 weeks): negative (inactive)
TD50 (rat, strain Fischer 344, females, by gavage, site: any site (literature study), lesion: several types, types named in the paper, dosed 103 weeks, study length 104 weeks): 164 mg/kg/day
TD50 (rat, strain Fischer 344, females, by gavage, site: liver, lesion: hepatocellular adenoma + hepatocellular carcinoma + neoplastic nodule, dosed 103 weeks, study length 104 weeks): 1950 mg/kg/day
TD50 (rat, strain Fischer 344, females, by gavage, site: thyroid gland, lesion: follicular-cell adenoma + follicular-cell carcinoma, dosed 103 weeks, study length 104 weeks): 252 mg/kg/day
TD50 (rat, strain Fischer 344, males, by gavage, site: adrenal gland, lesion: cortical adenoma, dosed 103 weeks, study length 104 weeks): 566 mg/kg/day
TD50 (rat, strain Fischer 344, males, by gavage, site: adrenal medulla, lesion: pheochromocytoma, dosed 103 weeks, study length 104 weeks): 184 mg/kg/day
TD50 (rat, strain Fischer 344, males, by gavage, site: any site (literature study), lesion: several types, types named in the paper, dosed 103 weeks, study length 104 weeks): 41.8 mg/kg/day
TD50 (rat, strain Fischer 344, males, by gavage, site: liver, lesion: hepatocellular adenoma + hepatocellular carcinoma + neoplastic nodule, dosed 103 weeks, study length 104 weeks): 665 mg/kg/day
TD50 (rat, strain Fischer 344, males, by gavage, site: pancreatic islets + thyroid gland, lesion: islet-cell adenoma + follicular-cell adenoma + follicular-cell carcinoma, dosed 103 weeks, study length 104 weeks): 67.7 mg/kg/day
TD50 (rat, strain Fischer 344, males, by gavage, site: pancreatic islets, lesion: islet-cell adenoma + islet-cell carcinoma, dosed 103 weeks, study length 104 weeks): 90.3 mg/kg/day
TD50 (rat, strain Fischer 344, males, by gavage, site: pancreatic islets, lesion: islet-cell adenoma, dosed 103 weeks, study length 104 weeks): 80.5 mg/kg/day
TD50 (rat, strain Fischer 344, males, by gavage, site: subcutaneous tissue, lesion: fibrosarcoma + fibroma, dosed 103 weeks, study length 104 weeks): 195 mg/kg/day
TD50 (rat, strain Fischer 344, males, by gavage, site: testis, lesion: interstitial-cell tumor, dosed 103 weeks, study length 104 weeks): 39.8 mg/kg/day
TD50 (rat, strain Fischer 344, males, by gavage, site: thyroid gland, lesion: follicular-cell adenoma + follicular-cell carcinoma, dosed 103 weeks, study length 104 weeks): 113 mg/kg/day
TD50 (rat, strain Fischer 344, males, by gavage, site: thyroid gland, lesion: follicular-cell adenoma, dosed 103 weeks, study length 104 weeks): 206 mg/kg/day
TD50 (rat, strain Fischer 344, males, by gavage, site: thyroid gland, lesion: follicular-cell carcinoma, dosed 103 weeks, study length 104 weeks): 236 mg/kg/day

CCO
carcinogen call (hamster, strain Syrian Golden, males, in drinking water, site: trachea, lesion: one or several types, types not named, dosed 29 weeks, study length 78 weeks): negative (inactive)
TD50 (mouse, strain A, males, in drinking water, site: liver, lesion: hepatocellular adenoma, dosed 72 weeks, study length 72 weeks): 127000 mg/kg/day
carcinogen call (mouse, strain BALB/c, males, in drinking water, site: forestomach, lesion: squamous-cell papilloma, dosed 69 weeks, study length 86 weeks): negative (inactive)
TD50 (mouse, strain Swiss, females, in drinking water, site: any site (literature study), lesion: several types, types named in the paper, dosed 69 weeks, study length 86 weeks): 21400 mg/kg/day (inactive)
TD50 (mouse, strain Swiss, females, in drinking water, site: forestomach, lesion: squamous-cell papilloma, dosed 69 weeks, study length 86 weeks): 10900 mg/kg/day (inactive)
carcinogen call (mouse, strain Swiss, males, in drinking water, site: lung, lesion: adenoma, dosed 69 weeks, study length 86 weeks): negative (inactive)
TD50 (rat, strain ACI, males, in drinking water, site: forestomach, lesion: papilloma, dosed 52 weeks, study length 52 weeks): 4980 mg/kg/day
carcinogen call (rat, strain Charles River CD (Sprague-Dawley), females, in drinking water, site: any site (literature study), lesion: one or several types, types not named, dosed 104 weeks, study length 104 weeks): negative (inactive)
carcinogen call (rat, strain Charles River CD (Sprague-Dawley), females, in drinking water, site: liver, lesion: neoplastic nodule, dosed 104 weeks, study length 104 weeks): negative (inactive)
carcinogen call (rat, strain Charles River CD (Sprague-Dawley), males, in drinking water, site: any site (literature study), lesion: one or several types, types not named, dosed 104 weeks, study length 104 weeks): negative (inactive)
carcinogen call (rat, strain Charles River CD (Sprague-Dawley), males, in drinking water, site: liver, lesion: hepatocellular carcinoma, dosed 104 weeks, study length 104 weeks): negative (inactive)
TD50 (rat, strain Charles River CD (Sprague-Dawley), males, in drinking water, site: liver, lesion: neoplastic nodule, dosed 104 weeks, study length 104 weeks): 84800 mg/kg/day (inactive)
carcinogen call (rat, strain F344/DuCrj, males, in drinking water, site: forestomach, lesion: one or several types, types not named, dosed 51 weeks, study length 52 weeks): negative (inactive)
carcinogen call (rat, strain F344/DuCrj, males, in drinking water, site: stomach, glandular, lesion: one or several types, types not named, dosed 51 weeks, study length 52 weeks): negative (inactive)
TD50 (rat, strain Slc-Wistar, males, in drinking water, site: liver, lesion: hepatocellular adenoma, dosed 120 weeks, study length 120 weeks): 56100 mg/kg/day (inactive)
TD50 (rat, strain Slc-Wistar, males, in drinking water, site: liver, lesion: hepatocellular carcinoma, dosed 120 weeks, study length 120 weeks): 93900 mg/kg/day (inactive)
TD50 (rat, strain Slc-Wistar, males, in drinking water, site: liver, lesion: several types, types named in the paper, dosed 120 weeks, study length 120 weeks): 33800 mg/kg/day (inactive)
carcinogen call (rat, strain Sprague-Dawley, both sexes, in drinking water, site: any site (literature study), lesion: malignant tumor, dosed 111 weeks, study length 111 weeks): negative (inactive)
TD50 (rat, strain Sprague-Dawley, females, in drinking water, site: any site (literature study), lesion: malignant tumor, dosed 104 weeks, study length 120 weeks): 61000 mg/kg/day
TD50 (rat, strain Sprague-Dawley, females, in drinking water, site: any site (literature study), lesion: several types, types named in the paper, dosed 104 weeks, study length 120 weeks): 5870 mg/kg/day
TD50 (rat, strain Sprague-Dawley, females, in drinking water, site: liver, lesion: hepatocellular adenoma, dosed 104 weeks, study length 120 weeks): 201000 mg/kg/day
TD50 (rat, strain Sprague-Dawley, females, in drinking water, site: mammary gland, lesion: benign tumor, dosed 104 weeks, study length 120 weeks): 6070 mg/kg/day
TD50 (rat, strain Sprague-Dawley, females, in drinking water, site: mammary gland, lesion: fibroadenoma, dosed 104 weeks, study length 120 weeks): 8790 mg/kg/day
TD50 (rat, strain Sprague-Dawley, females, in drinking water, site: mammary gland, lesion: several types, types named in the paper, dosed 104 weeks, study length 120 weeks): 4710 mg/kg/day
TD50 (rat, strain Sprague-Dawley, females, in drinking water, site: pancreas, lesion: adenoma, dosed 104 weeks, study length 120 weeks): 21900 mg/kg/day
TD50 (rat, strain Sprague-Dawley, females, in drinking water, site: pituitary gland, lesion: neoplasm, NOS, dosed 104 weeks, study length 120 weeks): 5480 mg/kg/day
TD50 (rat, strain Sprague-Dawley, males, in drinking water, site: adrenal gland, lesion: one or several types, types not named, dosed 130 weeks, study length 130 weeks): 13700 mg/kg/day
TD50 (rat, strain Sprague-Dawley, males, in drinking water, site: any site (literature study), lesion: malignant tumor, dosed 104 weeks, study length 120 weeks): 7180 mg/kg/day
TD50 (rat, strain Sprague-Dawley, males, in drinking water, site: any site (literature study), lesion: several types, types named in the paper, dosed 104 weeks, study length 120 weeks): 1210 mg/kg/day
TD50 (rat, strain Sprague-Dawley, males, in drinking water, site: any site (literature study), lesion: several types, types named in the paper, dosed 130 weeks, study length 130 weeks): 2130 mg/kg/day
TD50 (rat, strain Sprague-Dawley, males, in drinking water, site: liver, lesion: hepatocellular carcinoma, dosed 104 weeks, study length 120 weeks): 164000 mg/kg/day
TD50 (rat, strain Sprague-Dawley, males, in drinking water, site: liver, lesion: hepatocellular carcinoma, dosed 130 weeks, study length 130 weeks): 28400 mg/kg/day
TD50 (rat, strain Sprague-Dawley, males, in drinking water, site: liver, lesion: hyperplastic nodule, dosed 130 weeks, study length 130 weeks): 8260 mg/kg/day
TD50 (rat, strain Sprague-Dawley, males, in drinking water, site: pancreas, lesion: carcinoma, dosed 104 weeks, study length 120 weeks): 17500 mg/kg/day
TD50 (rat, strain Sprague-Dawley, males, in drinking water, site: pancreas, lesion: one or several types, types not named, dosed 130 weeks, study length 130 weeks): 13700 mg/kg/day
TD50 (rat, strain Sprague-Dawley, males, in drinking water, site: pancreas, lesion: several types, types named in the paper, dosed 104 weeks, study length 120 weeks): 33200 mg/kg/day
TD50 (rat, strain Sprague-Dawley, males, in drinking water, site: pituitary gland, lesion: one or several types, types not named, dosed 130 weeks, study length 130 weeks): 9110 mg/kg/day

CC1=C(C(=O)OCCN(Cc2ccccc2)c2ccccc2)C(c2cccc([N+](=O)[O-])c2)C(P2(=O)OCC(C)(C)CO2)=C(C)N1 (stereo not drawn)
carcinogen call (mouse, strain B6C3F1, females, in feed, site: any site (literature study), lesion: several types, types named in the paper, dosed 104 weeks, study length 104 weeks): negative (inactive)
TD50 (mouse, strain B6C3F1, females, in feed, site: liver, lesion: hepatocellular adenoma, dosed 104 weeks, study length 104 weeks): 11500 mg/kg/day (inactive)
TD50 (mouse, strain B6C3F1, females, in feed, site: liver, lesion: hepatocellular carcinoma, dosed 104 weeks, study length 104 weeks): 7430 mg/kg/day (inactive)
carcinogen call (mouse, strain B6C3F1, females, in feed, site: lung, lesion: alveolar/bronchiolar adenoma, dosed 104 weeks, study length 104 weeks): negative (inactive)
TD50 (mouse, strain B6C3F1, females, in feed, site: lung, lesion: alveolar/bronchiolar carcinoma, dosed 104 weeks, study length 104 weeks): 12300 mg/kg/day (inactive)
TD50 (mouse, strain B6C3F1, females, in feed, site: lymph node, lesion: malignant lymphoma, dosed 104 weeks, study length 104 weeks): 276 mg/kg/day (inactive)
carcinogen call (mouse, strain B6C3F1, males, in feed, site: any site (literature study), lesion: several types, types named in the paper, dosed 104 weeks, study length 104 weeks): negative (inactive)
carcinogen call (mouse, strain B6C3F1, males, in feed, site: liver, lesion: hepatocellular adenoma, dosed 104 weeks, study length 104 weeks): negative (inactive)
carcinogen call (mouse, strain B6C3F1, males, in feed, site: liver, lesion: hepatocellular carcinoma, dosed 104 weeks, study length 104 weeks): negative (inactive)
carcinogen call (mouse, strain B6C3F1, males, in feed, site: lung, lesion: alveolar/bronchiolar adenoma, dosed 104 weeks, study length 104 weeks): negative (inactive)
carcinogen call (mouse, strain B6C3F1, males, in feed, site: lung, lesion: alveolar/bronchiolar carcinoma, dosed 104 weeks, study length 104 weeks): negative (inactive)
TD50 (rat, strain F344/DuCrj, females, in feed, site: any site (literature study), lesion: several types, types named in the paper, dosed 104 weeks, study length 104 weeks): 244 mg/kg/day (inactive)
carcinogen call (rat, strain F344/DuCrj, females, in feed, site: liver, lesion: hepatocellular adenoma, dosed 104 weeks, study length 104 weeks): negative (inactive)
carcinogen call (rat, strain F344/DuCrj, males, in feed, site: any site (literature study), lesion: several types, types named in the paper, dosed 104 weeks, study length 104 weeks): negative (inactive)
TD50 (rat, strain F344/DuCrj, males, in feed, site: liver, lesion: several types, types named in the paper, dosed 104 weeks, study length 104 weeks): 2310 mg/kg/day (inactive)
